For the assay, the target named is T1, HCV RdRp NS5B d21BK (BK strain, 1b subtype) (Hepatitis C virus genotype 1b, UniProt P26663).
T1 construct: NS5B from the BK strain (1b subtype) is expressed in E. coli as a protein in which the 21 C-terminal amino acids are replaced; made in house; host or cells: E. coli
T1 sequence (P26663 2420-2997, looked up, natural form): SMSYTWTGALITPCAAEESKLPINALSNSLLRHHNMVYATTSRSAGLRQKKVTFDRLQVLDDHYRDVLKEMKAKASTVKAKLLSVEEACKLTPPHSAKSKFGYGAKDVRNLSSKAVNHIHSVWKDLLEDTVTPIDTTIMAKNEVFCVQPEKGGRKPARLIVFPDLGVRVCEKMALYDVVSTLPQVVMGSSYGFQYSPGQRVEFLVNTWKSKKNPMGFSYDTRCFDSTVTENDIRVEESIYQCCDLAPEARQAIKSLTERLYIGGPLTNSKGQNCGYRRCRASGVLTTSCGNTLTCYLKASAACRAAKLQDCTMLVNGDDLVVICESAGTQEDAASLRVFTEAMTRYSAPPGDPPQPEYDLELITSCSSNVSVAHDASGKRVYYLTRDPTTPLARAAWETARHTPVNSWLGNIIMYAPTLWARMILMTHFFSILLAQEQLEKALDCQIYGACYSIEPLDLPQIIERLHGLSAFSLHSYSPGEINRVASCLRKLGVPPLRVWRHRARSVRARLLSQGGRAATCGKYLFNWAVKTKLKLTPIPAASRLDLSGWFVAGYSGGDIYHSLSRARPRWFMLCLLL
Kind of assay: HCV polymerase (NS5B) RNA-dependent RNA polymerase inhibition, 33P-GTP filter assay. In kind it is biochemical. Particulars: in vitro; NS5B BK strain (1b subtype), 24 nM enzyme, 2 h at room temperature; read-out: HCV Polymerase Median IC50. The text has this:
The ability of the compounds of the present invention to inhibit hepatitis C polymerase was established by the following experimental procedure:
NS5B from the BK strain (1b subtype) is expressed in E. coli as a protein in which the 21 C-terminal amino acids are replaced with a short linker and a hexahistidine tag (GSHHHHHH). The purified protein is mixed with radioactive nucleotides and allowed to replicate a heteropolymeric RNA substrate, primed by an endogenous short hairpin, resulting in an approximately 760 nt product. The radioactive product is captured on a filter and quantitated after removal of the unincorporated nucleotides.
(1) Compounds 10 μl at 10 μg/ml in 15% DMSO
Add 20 μl enzyme mix into each well of the assay plate. Incubate compound and enzyme at room temperature for 15 minutes.
(3) Template Mix—Prepare Ahead.
Spin down a tube of RNA (5 μg/tube stored in 75% ethanol and 0.3 M sodium acetate) in a microcentrifuge for 20 min. at 4° C. One tube is enough for 1 to 1½ plates. Remove as much ethanol from the tube as possible by inverting the tube. Be gentle, pellet RNA may not adhere to the tube. Vacuum dry the RNA. Resuspend the RNA by adding 1 ml of DEPC water, close the cap of the tube tightly. To dissolve RNA, incubate RNA solution on ice for ˜60 min. and gently vortex. Spin briefly to ensure all RNA solution is down to the bottom of the tube before opening cap. Gently transfer RNA solution into a 5 ml or larger tube. Add another 3 ml of DEPC water (total 4 ml of volume).
Add the following volumes of reagents.
Add 20 μl template mix per reaction (i.e. 20 ng of POF per reaction or ˜3 nM)
(4) Incubate reaction at room temperature (22-25° C.) for 2 hours.
(5) Stop reaction by adding 50 μl of 170 mM EDTA.
Final concentration of EDTA is 85 mM.
(6) Prewet filters of Millipore Multiscreen filter plate by adding 200 μl of 0.5 M sodium phosphate buffer, pH 7.0 into each well. Let stand at room temperature for 2-3 min.
(7) Place the Multiscreen filter plate onto a Millipore Manifold and turn on vacuum to allow buffer to flow through. Turn off vacuum. Transfer 80 μl of the reaction product into each well of the filter plate. Let stand for 2-3 min. Turn on vacuum to filter reaction product.
(8) Turn off vacuum. Add 200 μl of 0.5 M sodium phosphate buffer, pH 7.0 into each well to wash filter. Turn on vacuum.
Repeat step (8) three more times.
(9) Remove polypropylene bottom. Spot dry filter at the bottom with paper towel. Air dry filter plate on a bench for 1 hr. Add 40 μl Super Mix scintillant. Seal top of the plate with a tape. Place plate into a Packard carrier or MicroBeta carrier.
(10) Count plate using a Packard Topcount or MicroBeta counter. Program 10 for ^33P in Top count or ^33P program in micro-beta.
Percent inhibition is calculated after background subtraction as a percent reduction of activity relative to the positive control (average value of the plate excluding the negative controls).
As for `Cc1cc(N)c(S(=O)(=O)N2CCC[C@H]2C(=O)O)cc1Cl` [Example 20, 1-[(2-amino-5-chloro-4-methylphenyl)sulfonyl]-L-proline], the IC50 stood at 5950 nM. The figure for `O=C(O)[C@H]1CCCN1S(=O)(=O)c1cc(Cl)cc(Cl)c1O` [Example 31, 1-[(3,5-dichloro-2-hydroxyphenyl)sulfonyl]-D-proline] is 6450 nM. The figure for `O=C(O)[C@H]1CCCN1S(=O)(=O)c1cc(Br)cc(Cl)c1O` [Example 22, 1-[(5-bromo-3-chloro-2-hydroxyphenyl)sulfonyl]-D-proline] is 4810 nM; for `O=C(O)[C@@H]1CCCN1S(=O)(=O)c1c(Cl)cc(Cl)cc1Cl` [Example 32, 1-[(2,4,6-trichlorophenyl)sulfonyl]-L-proline] it is 9600 nM; for `O=C(c1ccccc1)[C@@H]1CCCN1S(=O)(=O)c1cc(Cl)cc(Cl)c1O` [Example 30, {(2S)-1-[(3,5-dichloro-2-hydroxyphenyl)sulfonyl]pyrrolidin-2-yl}(phenyl)methanone] it is 7520 nM.

Regarding `O=C(O)[C@H]1CSCN1S(=O)(=O)c1cc(Cl)cc(Br)c1O` [Example 50, (4S)-3-[(3-bromo-5-chloro-2-hydroxyphenyl)sulfonyl]-1,3-thiazolidine-4-carboxylic acid], the IC50 turned out to be 870 nM. As for `O=C(O)[C@H]1CCCCN1S(=O)(=O)c1cc(Cl)cc(Br)c1O` [Example 40, (2R)-1-[(3-bromo-5-chloro-2-hydroxyphenyl)sulfonyl]piperidine-2-carboxylic acid], the 50% inhibitory concentration (IC50) turned out to be 1160 nM. The figure for `Cc1cc(NC(=O)c2cccs2)c(S(=O)(=O)N2CCC[C@H]2C(=O)O)cc1Cl` [Example 26, 1-({5-chloro-4-methyl-2-[(2-thienylcarbonyl)amino]phenyl}sulfonyl)-L-proline] is 6870 nM. On to `O=C(O)[C@@H]1CCCCN1S(=O)(=O)c1cc(Cl)cc(Br)c1O` [Example 39, (2S)-1-[(3-bromo-5-chloro-2-hydroxyphenyl)sulfonyl]piperidine-2-carboxylic acid], for which the IC50 stood at 450 nM.

`O=C(O)[C@@H]1CCCN1S(=O)(=O)c1cc(Br)cc(Br)c1O` [Example 9, 1-[(3,5-dibromo-2-hydroxyphenyl)sulfonyl]-L-proline]: the IC50 is 560 nM.

Turning to `O=C(O)[C@@H]1CCCCN1S(=O)(=O)c1cc(Cl)cc(Cl)c1O` [Example 43, (2S)-1-[(3,5-dichloro-2-hydroxyphenyl)sulfonyl]piperidine-2-carboxylic acid], the IC50 is 7100 nM. The figure for `O=C(O)[C@H]1C[C@H](O)CN1S(=O)(=O)c1cc(Cl)c(Cl)c(Cl)c1O` [Example 15, (4S)-4-hydroxy-1-[(3,4,5-trichloro-2-hydroxyphenyl)sulfonyl]-D-proline] is 1220 nM. In the case of `O=C(O)[C@H]1CSCN1S(=O)(=O)c1cc(F)cc(Cl)c1O` [Example 57, (4S)-3-[(3-chloro-5-fluoro-2-hydroxyphenyl)sulfonyl]-1,3-thiazolidine-4-carboxylic acid], the IC50 was determined as 14400 nM.

Take `Cc1cc(N)c(S(=O)(=O)N2CSC[C@H]2C(=O)O)cc1Cl` [Example 58, (4R)-3-[(2-amino-5-chloro-4-methylphenyl)sulfonyl]-1,3-thiazolidine-4-carboxylic acid]: the IC50 was 1980 nM. The figure for `CO[C@@H]1C[C@@H](C(=O)O)N(S(=O)(=O)c2cc(Cl)cc(Cl)c2O)C1` [Example 12, (4R)-1-[(3,5-dichloro-2-hydroxyphenyl)sulfonyl]-4-methoxy-L-proline] is 910 nM; for `O=C(O)[C@@H]1CCCCN1S(=O)(=O)c1cc(Cl)c(Cl)c(Cl)c1O` [Example 37, (2S)-1-[(3,4,5-trichloro-2-hydroxyphenyl)sulfonyl]piperidine-2-carboxylic acid] it is 80 nM.

On to `O=C(O)[C@@H]1CCCN1S(=O)(=O)c1cc(Br)cc(Cl)c1O` [Example 8, 1-[(5-bromo-3-chloro-2-hydroxyphenyl)sulfonyl]-L-proline], for which the IC50 turned out to be 400 nM. Take `O=C(O)[C@@H]1CCCN1S(=O)(=O)c1cc(Cl)cc(Br)c1O` [Example 5, 1-[(3-bromo-5-chloro-2-hydroxyphenyl)sulfonyl]-L-proline]: the IC50 came to 260 nM. The figure for `Cc1ccc(S(=O)(=O)N2CCC[C@H]2C(=O)O)cc1Cl` [Example 35, 1-[(3-chloro-4-methylphenyl)sulfonyl]-L-proline] is 10200 nM. The figure for `Cc1cc(S(=O)(=O)N2CSC[C@@H]2C(=O)O)c(N)cc1Cl` [Example 55, (4S)-3-[(2-amino-4-chloro-5-methylphenyl)sulfonyl]-1,3-thiazolidine-4-carboxylic acid] is 7500 nM; for `O=C(O)[C@@H]1CSCN1S(=O)(=O)c1cc(F)cc(Cl)c1O` [Example 49, (4R)-3-[(3-chloro-5-fluoro-2-hydroxyphenyl)sulfonyl]-1,3-thiazolidine-4-carboxylic acid] it is 2130 nM; for `O=C(O)[C@H]1CCCCN1S(=O)(=O)c1cc(Cl)cc(Cl)c1O` [Example 42, (2R)-1-[(3,5-dichloro-2-hydroxyphenyl)sulfonyl]piperidine-2-carboxylic acid] it is 2010 nM. For `O=C(O)[C@@H]1CCCN1S(=O)(=O)c1cc(Cl)c(Cl)c(Cl)c1O` [Example 4, 1-[(3,4,5-trichloro-2-hydroxyphenyl)sulfonyl]-L-proline], the IC50 turned out to be 80 nM. Then `O=C(O)[C@H]1CSCN1S(=O)(=O)c1cc(Cl)cc(Cl)c1O` [Example 51, (4S)-3-[(3,5-dichloro-2-hydroxyphenyl)sulfonyl]-1,3-thiazolidine-4-carboxylic acid], with 1710 nM; and `O=C(O)[C@@H]1CSCN1S(=O)(=O)c1cc(Cl)cc(Br)c1O` [Example 56, (4R)-3-[(3-bromo-5-chloro-2-hydroxyphenyl)sulfonyl]-1,3-thiazolidine-4-carboxylic acid], with 11200 nM. Turning to `Cc1cc(S(=O)(=O)N2CSC[C@H]2C(=O)O)c(N)cc1Cl` [Example 54, (4R)-3-[(2-amino-4-chloro-5-methylphenyl)sulfonyl]-1,3-thiazolidine-4-carboxylic acid], the IC50 amounted to 4750 nM.

Turning to `O=C(O)[C@@H]1CSCN1S(=O)(=O)c1cc(Cl)c(Cl)c(Cl)c1O` [Example 45, (4R)-3-[(3,4,5-trichloro-2-hydroxyphenyl)sulfonyl]-1,3-thiazolidine-4-carboxylic acid], the IC50 came to 50 nM. As to `CC(=O)[C@@H]1CCCN1S(=O)(=O)c1cc(Cl)cc(Cl)c1O` [Example 16, 1-{(2S)-1-[(3,5-dichloro-2-hydroxyphenyl)sulfonyl]pyrrolidin-2-yl}ethanone], the IC50 was 2620 nM. Consider `Cc1cc(N)c(S(=O)(=O)N2CCC[C@@H]2C(=O)O)cc1Cl` [Example 17, 1-[(2-amino-5-chloro-4-methylphenyl)sulfonyl]-D-proline], for which the IC50 amounted to 4700 nM. The figure for `O=S(=O)(c1cc(Cl)cc(Cl)c1O)N1CCC[C@H]1CO` [Example 21, 2,4-dichloro-6-{[(2S)-2-(hydroxymethyl)pyrrolidin-1-yl]sulfonyl}phenol] is 6100 nM.

For the molecule `O=C(O)[C@H]1CSCN1S(=O)(=O)c1cc(Cl)c(Cl)c(Cl)c1O` [Example 46, (4S)-3-[(3,4,5-trichloro-2-hydroxyphenyl)sulfonyl]-1,3-thiazolidine-4-carboxylic acid], the IC50 was found to be 260 nM. On to `O=C(O)[C@H]1CCCN1S(=O)(=O)c1cc(Cl)c(Cl)c(Cl)c1O` [Example 13, 1-[(3,4,5-trichloro-2-hydroxyphenyl)sulfonyl]-D-proline], for which the IC50 amounted to 1170 nM. Regarding `N#C[C@@H]1CCCN1S(=O)(=O)c1cc(Cl)cc(Cl)c1O` [Example 2, (2S)-1-[(3,5-dichloro-2-hydroxyphenyl)sulfonyl]pyrrolidine-2-carbonitrile], the 50% inhibitory concentration (IC50) came to 1040 nM. On to `Cc1cc(NC(=O)c2ccccc2)c(S(=O)(=O)N2CCC[C@H]2C(=O)O)cc1Cl` [Example 34, 1-{[2-(benzoylamino)-5-chloro-4-methylphenyl]sulfonyl}-L-proline], for which the IC50 worked out at 10100 nM.

Broadly, the IC50 is the concentration at which inhibition is half-maximal.
